Marks after values point to notes of the source that are not given here.
What was measured:
[1] = Dynamic light scattering: LNP particle size and PDI; type: physicochemical; conditions: for PDI N/P:6 / Size (nm) N/P:6 / PDI N/P:3 / Size (nm) N/P:3: LNP
Method: (§1) Lipids and active ingredients (e.g., RNA, DNA, etc.) were assembled into LNPs using microfluidic mixing. An ethanol phase was prepared by solubilizing ionizable lipids (i.e., lipid compounds), phospholipids (e.g., DSPC), cholesterol, and PEG lipids in ethanol, at predetermined mol % ratios given in Table 2. An aqueous phase was prepared by diluting a nucleic acid cargo (e.g., firefly luciferase mRNA) in an acidified buffer (pH 4.0 citrate buffer, 50 mM). A chip with microfluidic mixing architecture (e.g., toroidal mixer) was used to mix the two phases at predetermined flow rate ratios (e.g., 9 ml/min for the aqueous phase and 3 ml/min for the ethanol phase). Resulting LNPs comprising the lipids and encapsulating the nucleic acid cargo were dialyzed against PBS pH 7.4 for 2 hours at room temperature in a 20 kDa MWCO dialysis membrane. Then, PBS was refreshed to continue dialysis overnight at 2-8 TC. Upon completion of the buffer exchange, LNPs were optionally concentrated using a ultracentrifugal unit with a 10-100 kDa MWCO membrane.
d. Dynamic Light Scattering
LNPs were diluted with PBS pH 7.4 to predetermined dilution ranges based on the process step and LNP concentration. Following mixing, the particle size and PDI were measured by a dynamic light scattering instrument.

[2] = Plate-based fluorescence (RiboGreen) assay: nucleic acid cargo content and encapsulation efficiency of LNPs; type: physicochemical; conditions: for EE (%) N/P:6 / EE (%) N/P:3: LNP
Method: as §1
c. Plate-Based Fluorescence (RiboGreen) Assay
Nucleic acid cargos in the LNPs were quantified by RiboGreen assay, against a nucleic acid standard curve. LNPs encapsulating nucleic acid cargo were mixed with 1× Tris-EDTA (TE) and 2% triton in TE, separately, to achieve dilutions required by the assay. Then, the samples were heated at 30° C. and vortexed at 300 rpm. Samples were plated into 96-well plates and RiboGreen reagent was added into each well. Following incubation in the dark, fluorescence was measured from the wells, and plotted against the standard curve. Nucleic acid concentration obtained from the Triton-treated samples were used for total cargo concentration quantification. Only TE diluted sample fluorescence values were used to determine the non-encapsulated (free) cargo, and their ratio was used to determine the encapsulation efficiency (EE %).

[3] = test system: mouse organs; assay: In vivo activity screening in mice: organ mean total flux (p/s) of luciferase activity after injection of F2 LNP pools (Table 6, FIG. 7A-7C); conditions: luciferase mRNA
Summary of the method: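 C57BL/6J mice given one tail-vein injection of pooled Formulation F2 LNPs carrying firefly luciferase mRNA (0.25-3 mg/kg) in PBS. At 4-6 h, s.c. D-luciferin given; organs imaged ex vivo by IVIS within 10-15 min, after saline cardiac perfusion. Mean total flux (p/s) per organ ROI.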

[4] = LNP compositions for in vivo mouse study, four formulations (F1-F4) of the lipid compound pooled, or pools of four compounds (sixteen compositions)
[5] = LNP compositions for in vivo mouse study, four formulations (F1-F4) pooled, or pools of four compounds
[6] = LNP compositions for Formulation F2 Study

Row | Compound | Particle Size (nm) [1, 4] [nm] | PDI [1, 5] | PDI N/P:6 ([1]; Formulation F1, N/P 6) | Size (nm) N/P:6 ([1]; Formulation F1, N/P 6) [nm] | PDI N/P:6 ([1]; Formulation F2, N/P 6) | Size (nm) N/P:6 ([1]; Formulation F2, N/P 6) [nm] | PDI N/P:6 ([1]; Formulation F3, N/P 6) | Size (nm) N/P:6 ([1]; Formulation F3, N/P 6) [nm] | PDI N/P:6 ([1]; Formulation F4, N/P 6) | Size (nm) N/P:6 ([1]; Formulation F4, N/P 6) [nm] | EE % [2, 5] [%] | mRNA Content [2, 5] [µg/mL] | EE (%) N/P:6 ([2]; Formulation F1, N/P 6) [%] | EE (%) N/P:6 ([2]; Formulation F2, N/P 6) [%] | EE (%) N/P:6 ([2]; Formulation F3, N/P 6) [%] | EE (%) N/P:6 ([2]; Formulation F4, N/P 6) [%] | Organ Mean Total Flux Femur ([3]; Mouse 1, dose 0.3 mg/kg) | Organ Mean Total Flux Heart ([3]; Mouse 1, dose 0.3 mg/kg) | Organ Mean Total Flux Kidney ([3]; Mouse 1, dose 0.3 mg/kg) | Organ Mean Total Flux Liver ([3]; Mouse 1, dose 0.3 mg/kg) | also measured
1 | CCCCCCCC/C=C\CCCCCCCC(=O)OCC(COC(=O)CCCCCCC/C=C\CCCCCCCC)(COC(=O)CCC(CCCCCC)OC(=O)NCCN1CCCC1)COC(=O)CC12CC3CC(CC(C3)C1)C2 (centres unmarked) [Compound 3, [2-[[2-(1-adamantyl)acetyl]oxymethyl]-2-[[(Z)-octadec-9-enoyl]oxymethyl]-3-[4-(2-pyrrolidin-1ylethylcarbamoyloxy)decanoyloxy]propyl](Z)-octadec-9-enoate] | 89.1 | 0.08 | 0.09 | 74 ± 1 | 0.01 | 92 ± 1 | 0.07 | 102 ± 1 | 0.14 | 73 ± 1 | 96 | 83 | 98 | 99 | 98 | 98 | 1.3 p/s (×10^6) | 0.1 p/s (×10^6) | 0.1 p/s (×10^6) | 29.1 p/s (×10^6) | Organ Mean Total Flux Lung ([3]; Mouse 1, dose 0.3 mg/kg): 0.7 p/s (×10^6); Organ Mean Total Flux Muscle ([3]; Mouse 1, dose 0.3 mg/kg): 0.5 p/s (×10^6); Organ Mean Total Flux Pancreas ([3]; Mouse 1, dose 0.3 mg/kg): 0.2 p/s (×10^6); Organ Mean Total Flux Spleen ([3]; Mouse 1, dose 0.3 mg/kg): 1.4 p/s (×10^6)
2 | CCCCCCCC/C=C\CCCCCCCC(=O)OCC(COC(=O)CCCCCCC/C=C\CCCCCCCC)(COC(=O)CCC(CCCCCC)OC(=O)NCCN1CCCC1)COC(=O)CCC(OCCCCCCCC)OCCCCCCCC (centres unmarked) [Compound 4, [2-(4,4-dioctoxybutanoyloxymethyl)-2-[[(Z)-octadec-9-enoyl]oxymethyl]-3-[4-(2-pyrrolidin-1-ylethylcarbamoyloxy)decanoyloxy]propyl](Z)-octadec-9-enoate] | 93.4 | 0.022 | 0.063 | 78 ± 2 | 0.069 | 93 ± 1 | 0.08 | 108 ± 2 | 0.12 | 73 ± 2 | 99 | 99.1 | 100 | 100 | 100 | 100 | 15.6 p/s (×10^6) | 4.4 p/s (×10^6) | 0.8 p/s (×10^6) | 105.0 p/s (×10^6) | PDI N/P:3 ([1]; Formulation F1, N/P 3): 0.092; Size (nm) N/P:3 ([1]; Formulation F1, N/P 3): 86 ± 10 nm; PDI N/P:3 ([1]; Formulation F2, N/P 3): 0.041; Size (nm) N/P:3 ([1]; Formulation F2, N/P 3): 97 ± 1 nm; PDI N/P:3 ([1]; Formulation F3, N/P 3): 0.089; Size (nm) N/P:3 ([1]; Formulation F3, N/P 3): 116 ± 6 nm; PDI N/P:3 ([1]; Formulation F4, N/P 3): 0.068; Size (nm) N/P:3 ([1]; Formulation F4, N/P 3): 73 ± 0 nm; EE (%) N/P:3 ([2]; Formulation F1, N/P 3): 98%; EE (%) N/P:3 ([2]; Formulation F2, N/P 3): 98%; EE (%) N/P:3 ([2]; Formulation F3, N/P 3): 94%; EE (%) N/P:3 ([2]; Formulation F4, N/P 3): 98%; Organ Mean Total Flux Lung ([3]; Mouse 1, dose 0.3 mg/kg): 39.9 p/s (×10^6); Organ Mean Total Flux Muscle ([3]; Mouse 1, dose 0.3 mg/kg): 18.4 p/s (×10^6); Organ Mean Total Flux Pancreas ([3]; Mouse 1, dose 0.3 mg/kg): 5.0 p/s (×10^6); Organ Mean Total Flux Spleen ([3]; Mouse 1, dose 0.3 mg/kg): 17.6 p/s (×10^6)
3 | CCCCC/C=C\C/C=C\CCCCCCCC(=O)OCC(COC(=O)CCCCCCC/C=C\C/C=C\CCCCC)(COC(=O)CCC(CCCCCC)OC(=O)NCCN1CCCC1)COC(=O)CCC(OCCCCCCCC)OCCCCCCCC (centres unmarked) [Compound 6, [2-(4,4-dioctoxybutanoyloxymethyl)-2-[[(9Z,12Z)-octadeca-9,12-dienoyl]oxymethyl]-3-[4-(2-pyrrolidin-1-ylethylcarbamoyloxy)decanoyloxy]propyl](9Z,12Z)-octadeca-9,12-dienoate] | 77.9 | 0.107 | 0.172 | 69 ± 3 | 0.012 | 83 ± 1 | 0.078 | 85 ± 1 | 0.081 | 63 ± 1 | 99 | 100.1 | 100 | 100 | 100 | 100 | 6.1 p/s (×10^6) | 2.1 p/s (×10^6) | 1.3 p/s (×10^6) | 2966 p/s (×10^6) | PDI N/P:3 ([1]; Formulation F1, N/P 3): 0.09; Size (nm) N/P:3 ([1]; Formulation F1, N/P 3): 77 ± 2 nm; PDI N/P:3 ([1]; Formulation F2, N/P 3): 0.027; Size (nm) N/P:3 ([1]; Formulation F2, N/P 3): 89 ± 2 nm; PDI N/P:3 ([1]; Formulation F3, N/P 3): 0.059; Size (nm) N/P:3 ([1]; Formulation F3, N/P 3): 105 ± 5 nm; PDI N/P:3 ([1]; Formulation F4, N/P 3): 0.084; Size (nm) N/P:3 ([1]; Formulation F4, N/P 3): 65 ± 1 nm; EE (%) N/P:3 ([2]; Formulation F1, N/P 3): 99%; EE (%) N/P:3 ([2]; Formulation F2, N/P 3): 99%; EE (%) N/P:3 ([2]; Formulation F3, N/P 3): 95%; EE (%) N/P:3 ([2]; Formulation F4, N/P 3): 98%; Organ Mean Total Flux Lung ([3]; Mouse 1, dose 0.3 mg/kg): 17.6 p/s (×10^6); Organ Mean Total Flux Muscle ([3]; Mouse 1, dose 0.3 mg/kg): 8.3 p/s (×10^6); Organ Mean Total Flux Pancreas ([3]; Mouse 1, dose 0.3 mg/kg): 2.1 p/s (×10^6); Organ Mean Total Flux Spleen ([3]; Mouse 1, dose 0.3 mg/kg): 14.1 p/s (×10^6)
4 | CCCCC/C=C\CCOC(=O)CCCCCC(=O)OCC(COC(=O)CCCCCC(=O)OCC/C=C\CCCCC)(COC(=O)CCCCCC(=O)OCC/C=C\CCCCC)COC(=O)CCC(CCCCCC)OC(=O)NCCN1CCCC1 (centres unmarked) [Compound 7, O7-[2,2-bis[[7-[(Z)-non-3-enoxy]-7-oxo-heptanoyl]oxymethyl]-3-[4-(2-pyrrolidin-1-ylethylcarbamoyloxy)decanoyloxy]propyl]O1-[(Z)-non-3-enyl]heptanedioate] | 89.3 | 0.14 | 0.08 | 75 ± 1 | 0.11 | 97 ± 5 | 0.09 | 99 ± 2 | 0.21 | 75 ± 3 | 96 | 84 | 99 | 97 | 98 | 98 | 2.4 p/s (×10^6) | 0.2 p/s (×10^6) | 0.7 p/s (×10^6) | 140.0 p/s (×10^6) | PDI [1, 6]: 0.086; Particle Size (nm) [1, 6]: 120.8 nm; EE % [2, 6]: 98%; Organ Mean Total Flux Lung ([3]; Mouse 1, dose 0.3 mg/kg): 4.9 p/s (×10^6); Organ Mean Total Flux Muscle ([3]; Mouse 1, dose 0.3 mg/kg): 2.5 p/s (×10^6); Organ Mean Total Flux Pancreas ([3]; Mouse 1, dose 0.3 mg/kg): 1.8 p/s (×10^6); Organ Mean Total Flux Spleen ([3]; Mouse 1, dose 0.3 mg/kg): 29.0 p/s (×10^6); Organ Mean Total Flux Femur ([3]; Mouse 14, dose 0.5 mg/kg): 5.7 p/s (×10^6); Organ Mean Total Flux Heart ([3]; Mouse 14, dose 0.5 mg/kg): 0.9 p/s (×10^6); Organ Mean Total Flux Kidney ([3]; Mouse 14, dose 0.5 mg/kg): 3.2 p/s (×10^6); Organ Mean Total Flux Liver ([3]; Mouse 14, dose 0.5 mg/kg): 338.0 p/s (×10^6); Organ Mean Total Flux Lung ([3]; Mouse 14, dose 0.5 mg/kg): 14.5 p/s (×10^6); Organ Mean Total Flux Muscle ([3]; Mouse 14, dose 0.5 mg/kg): 48.2 p/s (×10^6); Organ Mean Total Flux Pancreas ([3]; Mouse 14, dose 0.5 mg/kg): 1.5 p/s (×10^6); Organ Mean Total Flux Spleen ([3]; Mouse 14, dose 0.5 mg/kg): 11.8 p/s (×10^6)
